Measured values from patent US20120027857A1, “CONTROLLED RELEASE PHARMACEUTICAL CO[…]-[…]-VENLAFAXINE” (LEK PHARMACEUTICALS D.D., priority 2008, published 2012).

What was measured:
pH of 1% water solution = assay type: physicochemical
[1] = Dissolution test, USP apparatus 1, 900 ml water with 0.9% NaCl, 150 rpm, 37°C, HPLC; assay type: physicochemical; settings: compared to O-desmethyl-venlafaxine succinate from the tablet having the same composition
Experimental: Dissolution properties were evaluated by in vivo relevant dissolution test. USP apparatus 1 was used for testing. 900 ml of water with 0.9% NaCl is placed in the dissolution vessel, mixed with a paddle at 150 rpm and kept at 37±0.5° C. Samples were taken from the dissolution vessel at regular time intervals and the concentrations of O-desmethyl-venlafaxine were analyzed by HPLC.
Pharmaceutical compositions might be optionally placed for 60 minutes in 900 ml 0.01 M HCl before being placed in 900 ml water with 0.9% NaCl.

Row | SMILES | pH (1% water solution) (pH of 1% water solution) | dissolution of salt from matrix tablet [1]
1 | CN(C)CC(c1ccc(O)cc1)C1(O)CCCCC1.O=C[C@H](O)[C@@H](O)[C@H](O)[C@H](O)C(=O)O (stereo not drawn) [O-desmethyl-venlafaxine glucuronate] | 6.14 | 
2 | CN(C)CC(c1ccc(O)cc1)C1(O)CCCCC1.O=C(O)c1cc(=O)[nH]c(=O)[nH]1 (stereo not drawn) [O-desmethyl-venlafaxine orotate] | 3.3 | much faster
